The values below come from ChEMBL document CHEMBL1201862, “PubChem BioAssay data set” (2004).

SMILES strings stand for the structures. Values joined by “and” are separate entries in the source; they are usually repeats but may differ in a detail not shown here. Equal values may be shown once.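 96-well plates; 48 h exposure; 5 concentrations. Endpoints by linear interpolation between flanking doses. Not reached: highest tested concentration assigned. At the GI50, growth is halved.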 Active and inactive are the calls of the source. Cut-off read from the data, not from the text of the source: active = GI50 up to about 1.1 µM and inactive = higher. Where only a bound is given, the exact number is not on record here.

Test systems include 786-0; CCRF-CEM; HCT-116; HCT-15; HOP-62; HOP-92; NCI-H226; NCI-H460; NCI/ADR-RES; OVCAR-3; OVCAR-4; SF-268; SK-MEL-5; SK-OV-3; SR; SW-620; T47D; TK-10; U-251.
Assay in all cases: DTP human tumour cell line panel, 48 h

What is called GI50 is the concentration that inhibits growth by half. `COc1ccc(/C=C2/N/C(=N\N=C/C(O)C(O)C(O)C(O)CO)NC2=O)cc1` (stereo not given): the GI50 in the assay on 786-0 was > 100 µM (inactive); in the assay on CCRF-CEM, 53.8 µM (inactive); in the assay with HCT-116 it was > 100 µM (inactive); in the assay with HCT-15, more than 100 µM; with HOP-62 it was > 100 µM (inactive); with HOP-92 it was > 100 µM (inactive). For the same molecule, the GI50 with NCI-H226 is > 100 µM (inactive); with NCI-H460, > 100 µM (inactive); in the assay on NCI/ADR-RES, > 100 µM (inactive); in the assay on OVCAR-3 it was > 100 µM (inactive); in the assay with OVCAR-4, 39.9 µM (inactive) and 39.4 µM (inactive); in the assay with SF-268, > 100 µM (inactive). The GI50 with SK-MEL-5 was > 100 µM (inactive); with SK-OV-3, > 100 µM (inactive); in the assay with SR it was > 100 µM (inactive); in the assay on SW-620, > 100 µM (inactive); in the assay on T47D, 62.1 µM (inactive); with TK-10 it was > 100 µM (inactive). The GI50 in the assay on U-251 was > 100 µM (inactive).

Turning to `Nc1ccc2nc3n(c(=O)c2c1)CCCCC3`, the GI50 with 786-0 is > 100 µM (inactive); with CCRF-CEM, > 100 µM (inactive); with HCT-116, > 100 µM (inactive); with HCT-15, more than 100 µM; in the assay with HOP-62 it was > 100 µM (inactive); in the assay on HOP-92, > 100 µM (inactive). Moreover, the GI50 in the assay with NCI-H226, in the assay with NCI-H460, in the assay on NCI/ADR-RES, in the assay with OVCAR-3, in the assay on OVCAR-4 and in the assay on SF-268 was > 100 µM (inactive) throughout. In addition, the GI50 with SK-MEL-5, in the assay with SK-OV-3, in the assay on SR, with SW-620, in the assay on T47D and with TK-10 was > 100 µM (inactive) in each case. For the same molecule, the GI50 with U-251 is > 100 µM (inactive).

`COc1ccc(C(=O)N(C(=O)N2CCN(c3ccccc3)CC2)S(=O)(=O)c2ccccc2)cc1`: the GI50 in the assay on 786-0 is 29.9 µM (inactive); in the assay with CCRF-CEM, 25.1 µM (inactive); in the assay on HCT-116, 18.8 µM (inactive); with HCT-15, 27.8 µM; with HOP-62, 35 µM (inactive); in the assay with HOP-92 it was 25.4 µM (inactive). The GI50 in the assay with NCI-H226 was 22.2 µM (inactive); in the assay on NCI-H460 it was 32.4 µM (inactive); in the assay with NCI/ADR-RES, 21.9 µM (inactive); in the assay on OVCAR-3 it was 37.8 µM (inactive); with OVCAR-4, 30.5 µM (inactive); in the assay with SF-268, 31.8 µM (inactive). For the same molecule, the GI50 in the assay on SK-MEL-5 is 14.5 µM (inactive); with SK-OV-3, 86.5 µM (inactive); with SR it was 18.8 µM (inactive); with SW-620, 37.4 µM (inactive); in the assay with T47D, 23 µM (inactive); in the assay on TK-10 it was 38.4 µM (inactive). Further, the GI50 with U-251 was 18.1 µM (inactive).

Turning to `Cc1nn(C(=O)c2ccc(Cl)cc2)c2c1C(c1ccccc1[N+](=O)[O-])SC(=N)N2` (stereo not given), the GI50 was > 10 µM (inactive) in the assay with 786-0; > 10 µM (inactive) in the assay with CCRF-CEM; > 10 µM (inactive) with HCT-116; more than 10 µM in the assay with HCT-15; > 10 µM (inactive) in the assay on HOP-62; > 10 µM (inactive) in the assay with HOP-92. The GI50 in the assay with NCI-H226, with NCI-H460, in the assay on NCI/ADR-RES, in the assay with OVCAR-3, with OVCAR-4 and in the assay with SF-268 was > 10 µM (inactive) in each case. The GI50 in the assay with SK-MEL-5, with SK-OV-3, in the assay on SR, in the assay on SW-620, with T47D and in the assay on TK-10 was > 10 µM (inactive) in each case. Moreover, in the assay with U-251, the GI50 was > 10 µM (inactive).

For `C=CC(=C)CCC(Br)C(C)(C)Br` (stereo not given), the GI50 is 99.1 µM (inactive) with 786-0; 22.2 µM (inactive) in the assay on CCRF-CEM; 54.3 µM (inactive) with HCT-116; more than 100 µM with HCT-15; > 100 µM (inactive) with HOP-62; 91.2 µM (inactive) with HOP-92. Besides, the GI50 in the assay on NCI-H226, in the assay with NCI-H460, in the assay on NCI/ADR-RES, with OVCAR-3, in the assay on OVCAR-4 and in the assay on SF-268 was > 100 µM (inactive) each time. The GI50 in the assay with SK-MEL-5 was > 100 µM (inactive); with SK-OV-3 it was > 100 µM (inactive); in the assay on SR, > 100 µM (inactive); in the assay on SW-620, 32.4 µM (inactive); with T47D, 66.2 µM (inactive); in the assay on TK-10, > 100 µM (inactive). Further, in the assay on U-251, the GI50 was > 100 µM (inactive).

On to `O=c1c2cc3c(cc2[nH]c2ncccc12)OCO3`, for which the GI50 in the assay with 786-0 is > 10 µM (inactive); with CCRF-CEM, > 10 µM (inactive); in the assay on HCT-116, > 10 µM (inactive); with HCT-15, more than 10 µM; in the assay with HOP-62, > 10 µM (inactive); with HOP-92, > 10 µM (inactive). Moreover, the GI50 in the assay with NCI-H226, in the assay with NCI-H460, in the assay with NCI/ADR-RES, with OVCAR-3, in the assay on OVCAR-4 and in the assay on SF-268 was > 10 µM (inactive) throughout. In addition, the GI50 in the assay on SK-MEL-5, in the assay with SK-OV-3, in the assay with SR, with SW-620, in the assay with T47D and with TK-10 was > 10 µM (inactive) in each case. In addition, in the assay with U-251, the GI50 was > 10 µM (inactive).

As to `O=[N+]([O-])/C(Cl)=C(\NCCO)C(Cl)=C(Cl)Cl`, the GI50 in the assay with 786-0 was 45 µM (inactive); in the assay on CCRF-CEM, 16.9 µM (inactive); with HCT-116, 45.2 µM (inactive); with HCT-15, 30.8 µM; in the assay with HOP-62 it was > 100 µM (inactive); in the assay on HOP-92 it was > 84.5 µM (inactive). For the same molecule, the GI50 in the assay on NCI-H226 was > 100 µM (inactive); with NCI-H460, > 100 µM (inactive); in the assay with NCI/ADR-RES it was 61.1 µM (inactive); with OVCAR-3, 60.4 µM (inactive); in the assay on OVCAR-4, 59.4 µM (inactive); in the assay with SF-268, 87.9 µM (inactive). Besides, the GI50 in the assay on SK-MEL-5 was > 96.4 µM (inactive); with SK-OV-3 it was > 100 µM (inactive); in the assay on SR it was 20.5 µM (inactive); in the assay on SW-620 it was 41.3 µM (inactive); in the assay with T47D, 57.7 µM (inactive); with TK-10 it was > 89.3 µM (inactive). The GI50 in the assay with U-251 is > 93.3 µM (inactive).

Take `COC1=CC(=O)C2=C(C1=O)[C@H]1CC[C@]3(C)[C@@H](OC(C)=O)CC[C@H]3[C@@H]1CC2`: the GI50 is 55.6 µM (inactive) in the assay on 786-0; 25.4 µM (inactive) in the assay on CCRF-CEM; 29.3 µM (inactive) in the assay on HCT-116; 49.5 µM with HCT-15; > 100 µM (inactive) in the assay on HOP-62; 7.93 µM (inactive) with HOP-92. Also, the GI50 in the assay with NCI-H226 is 75.2 µM (inactive); in the assay on NCI-H460, 71 µM (inactive); with NCI/ADR-RES it was 32.7 µM (inactive); in the assay on OVCAR-3, > 100 µM (inactive); in the assay with OVCAR-4, 16.5 µM (inactive); with SF-268 it was 42.1 µM (inactive). Also, the GI50 was 21.4 µM (inactive) with SK-MEL-5; > 100 µM (inactive) in the assay on SK-OV-3; 37.4 µM (inactive) with SR; > 100 µM (inactive) in the assay on SW-620; 23.2 µM (inactive) in the assay with T47D; > 100 µM (inactive) in the assay with TK-10. Moreover, the GI50 in the assay on U-251 is 30.3 µM (inactive).

`Cc1cccc(NC(=S)N/N=C(/c2ccccc2)c2ccccn2)c1`: the concentration for 50% growth inhibition (GI50) with 786-0 is 0.948 µM (active); in the assay with CCRF-CEM, < 0.01 µM (active); with HCT-116 it was < 0.0131 µM (active); with HCT-15, 0.0255 µM; in the assay with HOP-62, 1.29 µM (inactive); in the assay on HOP-92, 0.484 µM (active). Also, the GI50 in the assay with NCI-H226 was 0.207 µM (active); with NCI-H460 it was 0.159 µM (active); in the assay with NCI/ADR-RES it was 0.138 µM (active); in the assay with OVCAR-3 it was < 0.0182 µM (active); in the assay with OVCAR-4, 0.368 µM (active); with SF-268 it was 0.0863 µM (active). In addition, the GI50 in the assay on SK-MEL-5 is 0.108 µM (active); in the assay with SK-OV-3, 0.038 µM (active); in the assay on SR it was < 0.0144 µM (active); in the assay with SW-620 it was < 0.019 µM (active); in the assay on T47D it was 0.0579 µM (active); in the assay with TK-10 it was 0.117 µM (active). For the same molecule, the concentration for 50% growth inhibition (GI50) in the assay with U-251 was 0.0299 µM (active).

On to `C=C(C)[C@@H]1CC[C@]2(C)CC[C@]3(C)[C@H](CC[C@@H]4[C@@]5(C)CC[C@H](OC(=O)c6ccccc6)C(C)(C)[C@@H]5CC[C@]43C)[C@@H]12`, for which the GI50 with 786-0 was > 100 µM (inactive); with CCRF-CEM, > 100 µM (inactive); in the assay with HCT-116, > 100 µM (inactive); in the assay with HCT-15, more than 100 µM; in the assay on HOP-62, > 100 µM (inactive); in the assay on HOP-92 it was > 100 µM (inactive). The GI50 with NCI-H226, in the assay with NCI-H460, in the assay with NCI/ADR-RES, in the assay with OVCAR-3, in the assay with OVCAR-4 and in the assay with SF-268 was > 100 µM (inactive) throughout. The GI50 was > 100 µM (inactive) in the assay on SK-MEL-5; > 100 µM (inactive) with SK-OV-3; 48.2 µM (inactive) in the assay with SR; > 100 µM (inactive) in the assay on SW-620; > 100 µM (inactive) in the assay with T47D; > 100 µM (inactive) in the assay on TK-10. The GI50 in the assay on U-251 is > 100 µM (inactive).
